Experimental data taken from US11098060B2, “Macrocycle containing aminopyrazole and pyrimidine and pharmaceutical composition and use thereof” (CHIA TAI TIANQING PHARMACEUTICAL GROUP CO., LTD., priority 2017, dated 2021).

Key:
TrkA^WT kinase = TrkA^WT kinase (Homo sapiens (Human), UniProt P04629); test: Assay for inhibitory activity (IC50) against TrkA^WT (HTRF); assay type: biochemical; settings: TrkA 1 nM, ATP 40 μM, TK peptide 1 μM, 60 min at 23° C.
[1] = target: TrkA^G595R (Kinase domain) kinase (Homo sapiens (Human), UniProt P04629, G595R); test: Assay for inhibitory activity (IC50) against TrkA^G595R kinase (HTRF); assay type: biochemical; settings: kinase 0.2 nM, TK peptide 1 μM, 120 min at 23° C.
[2] = Pharmacokinetic assay in rats, oral; assay type: in vivo; settings: rat, male SD rats, 5 mg/kg single intragastric administration, plasma
Protocol: Male SD rats were available from Beijing Vital River Laboratory Animal Technology Co., Ltd. The rats were allocated with three rats per group, and orally administered the suspension of a sample to be tested (5 mg/kg, the suspension is a mixed solution of 10% EtOH, 40% PEG 400 and 50% H2O) by single intragastric administration, respectively. Before the experiment, the animals were fasted overnight, and the fasting time was from 10 hrs before administration to 4 hrs after administration. After administration, a blood sample was taken at 0.25 hr, 0.5 hr, 1 hr, 2 hrs, 4 hrs, 6 hrs, 8 hrs and 24 hrs, respectively. After the animals were narcotized with isoflurane using an anaesthesia machine for small animals, 0.3 mL of whole blood was taken from fundus venous plexus, and placed in a heparin anticoagulant tube. At 4° C., the sample was centrifuged at 4000 rpm for 5 min, and plasma was transferred to a centrifuge tube and preserved at −80° C. until the analysis was started. The sample in plasma was extracted by the protein precipitation method, and the extracted liquid was analyzed by LC/MS/MS.

Chain of TrkA^G595R (Kinase domain) kinase (P04629 510-781 G595R): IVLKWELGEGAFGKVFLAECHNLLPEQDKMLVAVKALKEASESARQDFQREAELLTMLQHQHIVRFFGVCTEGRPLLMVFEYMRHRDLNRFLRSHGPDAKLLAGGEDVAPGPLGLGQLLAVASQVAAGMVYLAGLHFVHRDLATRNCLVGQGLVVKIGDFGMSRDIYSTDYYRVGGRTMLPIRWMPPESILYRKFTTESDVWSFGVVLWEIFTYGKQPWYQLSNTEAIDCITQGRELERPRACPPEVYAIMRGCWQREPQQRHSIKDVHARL
Chain of TrkA^WT kinase (P04629 33-796): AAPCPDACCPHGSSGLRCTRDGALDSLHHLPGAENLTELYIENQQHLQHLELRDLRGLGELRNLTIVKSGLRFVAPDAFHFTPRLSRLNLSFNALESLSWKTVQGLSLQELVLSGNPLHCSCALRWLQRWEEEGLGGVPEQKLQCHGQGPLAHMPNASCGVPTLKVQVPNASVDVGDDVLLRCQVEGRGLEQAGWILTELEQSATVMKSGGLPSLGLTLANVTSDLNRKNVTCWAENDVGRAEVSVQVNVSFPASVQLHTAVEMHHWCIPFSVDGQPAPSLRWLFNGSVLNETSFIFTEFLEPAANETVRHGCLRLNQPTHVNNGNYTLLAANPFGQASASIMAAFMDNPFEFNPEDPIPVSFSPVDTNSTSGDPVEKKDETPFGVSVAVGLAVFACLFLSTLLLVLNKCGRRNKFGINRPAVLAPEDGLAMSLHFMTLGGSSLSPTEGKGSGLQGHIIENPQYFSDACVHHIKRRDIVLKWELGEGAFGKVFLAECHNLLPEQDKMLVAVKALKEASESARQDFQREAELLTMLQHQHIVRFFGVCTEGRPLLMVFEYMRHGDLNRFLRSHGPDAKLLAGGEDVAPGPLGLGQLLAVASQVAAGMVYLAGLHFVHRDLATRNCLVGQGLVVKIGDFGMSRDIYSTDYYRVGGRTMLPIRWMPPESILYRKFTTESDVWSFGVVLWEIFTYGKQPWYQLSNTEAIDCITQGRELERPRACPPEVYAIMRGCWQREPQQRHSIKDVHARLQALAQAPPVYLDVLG

In the case of Nc1nn2ccc3nc2c1C(=O)NCCCOc1ncc(F)cc1C1CCCN31 (centres unmarked) [Example 2], the IC50 (TrkA^WT kinase) is reported as 0.57 ± 0.1 nM.
Nc1nn2ccc3nc2c1C(=O)NCCCCc1cccc(n1)C1CCCN31 (centres unmarked) [Example 3, (1^3E,1^4E)-1^2-amino-4-oxa-8-aza-1(5,3)-pyrazolo[1,5-a]pyrimidine-3(2,6)-pyridine-2 (1,2)-pyrrolidylcyclononanephane-9-one] gave an IC50 (TrkA^WT kinase) of 0.84 ± 0.12 nM.
Compound Nc1nn2ccc3nc2c1C(=O)NCCOc1ncccc1[C@H]1CCCN31 [Example 5, (R,1^3E,1^4E)-1^2-amino-4-oxa-7-aza-1(5,3)-pyrazolo[1,5-a]pyrimidine-3(3,2)-pyridine-2 (1,2)-pyrrolidylcyclooctanephane-8-one] has an IC50 (TrkA^WT kinase) of 0.37 ± 0.04 nM.
Nc1nn2ccc3nc2c1C(=O)NCCCOc1ncccc1[C@H]1CCCN31 [Example 6, (R,1^3E,1^4E)-1^2-amino-4-oxa-8-aza-1(5,3)-pyrazolo[1,5-a]pyrimidine-3(3,2)-pyridine-2 (1,2)-pyrrolidylcyclononanephane-9-one] showed an IC50 (TrkA^WT kinase) of 0.47 ± 0.26 nM.
With Nc1nn2ccc3nc2c1C(=O)NCCOc1ccc(F)cc1[C@H]1CCCN31 [Example 8, (R,1^3E,1^4E)-1^2-amino-3^5-fluro-4-oxa-7-aza-1(5,3)-pyrazolo[1,5-a]pyrimidine-2(1,2)-pyrrolidine-3(1,2)-benzocyclooctanephane-8-one] the IC50 (TrkA^WT kinase) was 0.41 ± 0.04 nM and the IC50 [1] was 2.08 ± 0.45 nM.
For Nc1nn2ccc3nc2c1C(=O)NCCOc1ncc(F)cc1[C@H]1C[C@@H](O)CN31 [Example 9, (1^3E,1^4E,2^2R,2^4R)-1^2-amino-3^5fluoro-2^4-hydroxy-4-oxa-7-aza-1(5,3)-pyrazolo[1,5-a] pyrimidine-3(3,2)-pyridine-2(1,2)-pyrrolidylcyclooctanephane-8-one], the IC50 (TrkA^WT kinase) was 0.44 ± 0.12 nM and the IC50 [1] was 0.84 ± 0.14 nM.
Nc1nn2ccc3nc2c1C(=O)NCCCOc1ccc(F)cc1[C@H]1CCCN31 [Example 10, (R,1^3E,1^4E)-1^2-amino-3^5-fluro-4-oxa-8-aza-1(5,3)-pyrazolo[1,5-a]pyrimidine-2(1,2)-pyrrolidine-3(1,2)-benzocyclononanephane-9-one] gave an IC50 (TrkA^WT kinase) of 0.8 ± 0.21 nM and an IC50 [1] of 1.92 ± 0.1 nM.
For Nc1nn2ccc3nc2c1C(=O)NCCOc1ncccc1C1CCCN31 (centres unmarked) [Example 11, (1^3E, 1^4E)-1^2-amino-4-oxa-7-aza-1(5,3)-pyrazolo[1,5-a]pyrimidine-3(3,2)-pyridine-2 (1,2)-pyrrolidylcyclooctanephane-8-one], the IC50 (TrkA^WT kinase) was 1.04 ± 0.34 nM.
For Nc1nn2ccc3nc2c1C(=O)NCCCOc1ncc(F)cc1C1C[C@@H](F)CN31 (some centres unmarked) [Example 13, (1^3E,1^4E, 2^2R,2^4R)-1^2-amino-2^4,3^5-difluoro-4-oxa-8-aza-1(5,3)-pyrazolo[1,5-a]pyrimidine-3(3,2)-pyridine-2 (1,2)-pyrrolidylcyclononanephane-9-one], the IC50 (TrkA^WT kinase) was 0.64 ± 0.02 nM.
Nc1nn2ccc3nc2c1C(=O)NCCOc1ncc(F)cc1[C@H]1C[C@H](F)CN31 [Example 14, (1^3E,1^4E,2^2R,2^4S)-1^2-amino-2^4,3^5-difluoro-4-oxa-7-aza-1(5,3)-pyrazolo[1,5-a]pyrimidine-3(3,2)-pyridine-2 (1,2)-pyrrolidylcyclooctanephane-8-one] showed an IC50 (TrkA^WT kinase) of 0.68 ± 0.03 nM, an IC50 [1] of 0.4 ± 0.05 nM and an AUC(0-inf) [2] of 504 ng·h/mL. It also gave a Cmax [2] of 140 ng/mL, a Tmax [2] of 1 h and a half-life [2] of 1.81 h.
With Nc1nn2ccc3nc2c1C(=O)NCCCCOc1ncc(F)cc1[C@H]1C[C@H](F)CN31 [Example 16, (1^3E,1^4E,2^2R,2^4S)-1^2-amino-2^4,3^5-difluoro-4-oxa-9-aza-1(5,3)-pyrazolo[1,5-a] pyrimidine-3(3,2)-pyridine-2(1,2)-pyrrolidylcyclodecanephane-10-one] the IC50 (TrkA^WT kinase) was 0.51 ± 0.05 nM and the IC50 [1] was 0.76 ± 0.14 nM.
Compound CN1CCCOc2ncc(F)cc2[C@H]2C[C@H](F)CN2c2ccn3nc(N)c(c3n2)C1=O [Example 17, (1^3E,1^4E,2^2R,2^4S)-1^2-amino-2^4,3^5-difluoro-8-methyl-4-oxa-8-aza-1(5,3) -pyrazolo[1,5-a] pyrimidine-3(3,2)-pyridine-2(1,2)-pyrrolidylcyclononanephane-9-one] has an IC50 (TrkA^WT kinase) of 0.61 ± 0.06 nM and an IC50 [1] of 1.05 ± 0.16 nM.
With CC1(C)CNC(=O)c2c(N)nn3ccc(nc23)N2C[C@@H](F)CC2c2cc(F)cnc2OC1 (some centres unmarked) [Example 18, (1^3E,1^4E,2^2R,2^4S)-1^2-amino-2^4,3^5-difluoro-6,6-dimethyl-4-oxa-8-aza-1(5,3)-pyrazolo [1,5-a]pyrimidine-3(3,2)-pyridine-2(1,2)-pyrrolidylcyclononanephane-9-one] the IC50 [1] was 1.24 ± 0.15 nM.
In the case of C[C@@H]1COc2ncc(F)cc2[C@H]2C[C@H](F)CN2c2ccn3nc(N)c(c3n2)C(=O)N1 [Example 19, (1^3E,1^4E,2^2R,2^4S,6R)-1^2-amino-2^4, 3^5-difluoro-6-methyl-4-oxa-7-aza-1(5,3)-pyrazolo[1,5-a] pyrimidine-3(3,2)-pyridine-2(1,2)-pyrrolidylcyclooctanephane-8-one], the IC50 [1] is reported as 0.73 ± 0.07 nM.
In the case of Nc1nn2ccc3nc2c1C(=O)NCCOc1ccc(F)cc1[C@@H]1CCCN31 [Example 20, (S,1^3E,1^4E)-1^2-amino-3^5-fluoro-4-oxa-7-aza-1(5,3)-pyrazolo [1,5-a]pyrimidine-2(1,2)-pyrrolidine-3(1,2)-benzocyclooctanephane-8-one], the IC50 (TrkA^WT kinase) is reported as 3.8 ± 0.21 nM.
In the case of Nc1nn2ccc3nc2c1C(=O)NCCCOc1ncc(F)cc1[C@H]1CCCN31 [Example 21, (R,1^3E,1^4E)-1^2-Amino-3^5-fluoro-4-oxa-8-aza-1(5,3)-pyrazol[1,5-a]pyrimidine-3(3,2)-pyridine-2(1,2)-pyrrolidylcyclononanephane-9-one], the IC50 (TrkA^WT kinase) is reported as 0.4 ± 0.04 nM and the IC50 [1] is reported as 0.85 ± 0.04 nM.
With Nc1nn2ccc3nc2c1C(=O)NCCCn1cc(F)cc(c1=O)[C@H]1CCCN31 [Example 22, (1^3E,1^4E,2^2R)-1^2-Amino-3^5-fluoro-3^1,3^2-dihydro-7-aza-1(5,3)-pyrazolo[1,5-a]pyrimidine-3(3,1)-pyridine-2(1,2)-pyrrolidylcyclooctanephane-3^2,8-dione] the IC50 (TrkA^WT kinase) was 0.57 ± 0.03 nM.
Work on Nc1nn2ccc3nc2c1C(=O)NCCCn1cc(F)cc(c1=O)C1CCCN31 (centres unmarked) [Example 24, (1^3E,1^4E)-1^2-amino-3^5-fluoro-3^1,3^2-dihydro-7-aza-1(5,3)-pyrazolo[1,5-a]pyrimidine-3(3,1)-pyridine-2(1,2)-pyrrolidylcyclooctanephane-3^2,8-dione] yielded an IC50 (TrkA^WT kinase) of 0.85 ± 0.07 nM.
Nc1nn2ccc3nc2c1C(=O)NCCCc1ncc(F)cc1[C@H]1C[C@H](F)CN31 [Example 27, (1^3E,1^4E,2^2R,2^4S)-1^2-amino-2^4,3^5-difluoro-7-aza-1(5,3)-pyrazolo[1,5-a]pyrimidine-3(3,2)-pyridine-2(1,2)-pyrrolidylcyclooctanephane-8-one] showed an IC50 (TrkA^WT kinase) of 0.21 ± 0.03 nM and an IC50 [1] of 0.68 ± 0.26 nM.
Work on C[C@@H]1CCc2ncc(F)cc2[C@H]2CCCN2c2ccn3nc(N)c(c3n2)C(=O)N1 [Example 28, (1^3E,1^4E,2^2R,6R)-1^2-amino-3^5-fluoro-6-methyl-7-aza-1(5,3)-pyrazolo[1,5-a]pyrimidine 3(3,2)-pyridine-2(1,2) pyrrolidylcyclooctanephane-8-one] yielded an IC50 (TrkA^WT kinase) of 0.31 ± 0.03 nM and an IC50 [1] of 1.01 ± 0.36 nM.
In the case of C[C@H]1CCc2ncc(F)cc2[C@H]2C[C@H](F)CN2c2ccn3nc(N)c(c3n2)C(=O)N1 [Example 29, (1^3E,1^4E,2^2R,24S,6S)-1^2-amino-2^4,3^5-difluoro-6-methyl-7-aza-1(5,3)-pyrazolo[1,5-a]pyrimidine-3(3,2)-pyridine-2(1,2) pyrrolidylcyclooctanephane-8-one], the IC50 (TrkA^WT kinase) is reported as 0.25 ± 0.02 nM and the IC50 [1] is reported as 1.08 ± 0.24 nM.
Work on Nc1nn2ccc3nc2c1C(=O)NCCCCc1ncc(F)cc1[C@H]1C[C@H](F)CN31 [Example 31, (1^3E,1^4E,2^2R,2^4S)-1^2-amino-2^4,3^5-difluoro-8-aza-1(5,3)-pyrazolo[1,5-a]pyrimidine-3(3,2)-pyridine-2(1,2)-pyrrolidylcyclononanephane-9-one] yielded an IC50 [1] of 1.45 ± 0.11 nM.
Compound C[C@H]1CNC(=O)c2c(N)nn3ccc(nc23)N2CCC[C@@H]2c2cc(F)ccc2O1 [Example 32, (1^3E,1^4E,2^2R,5S)-1^2-amino-3^5-fluoro-5-methyl-4-oxa-7-aza-1(5,3)-pyrazolo[1,5-a]pyrimidine-(1,2)-pyrrolidine-3(1,2)-benzocyclooctanephane-8-one] has an IC50 [1] of 1.28 ± 0.05 nM.
Nc1nn2ccc3nc2c1C(=O)NCCOc1ncc(F)cc1[C@H]1CCCN31 [Example 33, (R,1^3E,1^4E)-1^2-amino-3^5-fluoro-4-oxa-7-aza-1(5,3)-pyrazo[1,5-a]pyrimidine-3(3,2)-pyridine-2(1,2)-pyrrolidylcyclooctanephane-8-one] showed an AUC(0-inf) [2] of 513 ng·h/mL, a Cmax [2] of 142 ng/mL and a Tmax [2] of 0.5 h. It also gave a half-life [2] of 4.22 h.
Compound Nc1nn2ccc3nc2c1C(=O)NCC(F)(F)COc1ncc(F)cc1[C@H]1C[C@H](F)CN31 [Example 35, (1^3E,1^4E,2^2R,2^4S)-1^2-amino-2^4,3^5,6,6-tetrafluoro-4-oxa-8-aza-1(5,3)-pyrazol[1,5-a]pyrimidine-3(3,2)-pyridine-2(1,2)-pyrrolidylcyclononanephane-9-one] has an IC50 [1] of 1.36 ± 0.02 nM.
In the case of “(1^3E,1^4E,2^2R,2^4S)-1^2-Amino-2^4,3^5-difluoro-4-oxa-8-aza-1(5,3)-pyrazolo[1,5-a]pyrimidin-3(3,2)-pyridine-2(1,2)-pyrrolidylcyclononanephane-9-one [Example 12]”, the IC50 (TrkA^WT kinase) is reported as 0.72 ± 0.04 nM and the IC50 [1] is reported as 0.34 ± 0.04 nM.
